Measured values as given in paper PMC3820707, “Structure-Activity Relationships of Constrained Phenylethylamine Ligands for the Serotonin 5-HT2 Receptors” (PLoS ONE, 2013).
Structures can show the parent of a compound that is named as a salt. Where two headings read alike, the source gives them in different places.

How the values were obtained:
5-HT2A [1] = biological target: T1, 5-HT2A (Homo sapiens, UniProt P28223); settings: read-out: Affinity, Ki 5-HT2A; cited from earlier work
5-HT2C [2] = settings: Rat; read-out: Affinity, Ki 5-HT2C; cited from earlier work
5-HT2A [3] = settings: cited from earlier work; for Ki: Rat, read-out: Affinity, Ki 5-HT2A
5-HT2A-C = biological target: 5-HT2A-C; design: method as in PMID 9857084; settings: range over 5-HT2A, 5-HT2B, 5-HT2C; read-out: Affinity in 5-HT2A-C; cited from earlier work
5-HT2B = 5-HT2B (Homo sapiens, UniProt P41595); assay: Competition binding with [3H]-LSD (NIMH PDSP)
5-HT2A [4] = biological target: T1, 5-HT2A; assay: Competition binding with [3H]-ketanserin (NIMH PDSP)
5-HT2C [5] = biological target: T2, 5-HT2C (Homo sapiens, UniProt P28335); assay: Competition binding with [3H]-mesulergine (NIMH PDSP)
T2 sequence (P28335 33-458): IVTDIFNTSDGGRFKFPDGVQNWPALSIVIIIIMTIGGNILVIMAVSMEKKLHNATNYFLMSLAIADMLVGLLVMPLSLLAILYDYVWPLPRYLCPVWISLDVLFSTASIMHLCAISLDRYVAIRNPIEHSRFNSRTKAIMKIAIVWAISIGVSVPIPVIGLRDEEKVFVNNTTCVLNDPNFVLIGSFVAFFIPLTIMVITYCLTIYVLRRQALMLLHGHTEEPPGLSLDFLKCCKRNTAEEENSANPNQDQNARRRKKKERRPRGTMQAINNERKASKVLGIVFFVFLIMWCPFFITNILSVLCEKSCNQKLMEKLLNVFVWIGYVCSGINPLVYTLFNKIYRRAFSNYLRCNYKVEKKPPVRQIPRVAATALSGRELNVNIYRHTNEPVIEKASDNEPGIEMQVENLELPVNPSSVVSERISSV

[6] = Affinity, Ki 5-HT2B, radioligand [3H]-LSD

T1 sequence (P28223 whole entry): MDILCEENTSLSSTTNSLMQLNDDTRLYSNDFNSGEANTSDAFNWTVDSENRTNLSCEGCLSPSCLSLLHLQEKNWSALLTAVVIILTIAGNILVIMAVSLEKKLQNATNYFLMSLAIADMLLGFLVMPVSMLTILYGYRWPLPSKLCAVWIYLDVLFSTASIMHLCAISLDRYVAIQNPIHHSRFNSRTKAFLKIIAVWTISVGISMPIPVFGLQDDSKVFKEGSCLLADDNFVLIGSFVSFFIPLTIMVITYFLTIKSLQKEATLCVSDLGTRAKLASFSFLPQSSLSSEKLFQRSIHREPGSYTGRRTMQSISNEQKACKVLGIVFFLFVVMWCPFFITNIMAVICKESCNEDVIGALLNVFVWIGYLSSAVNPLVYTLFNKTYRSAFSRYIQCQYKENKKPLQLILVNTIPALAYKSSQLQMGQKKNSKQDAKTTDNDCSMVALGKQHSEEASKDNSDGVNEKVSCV
Chain of 5-HT2B (P41595 whole entry): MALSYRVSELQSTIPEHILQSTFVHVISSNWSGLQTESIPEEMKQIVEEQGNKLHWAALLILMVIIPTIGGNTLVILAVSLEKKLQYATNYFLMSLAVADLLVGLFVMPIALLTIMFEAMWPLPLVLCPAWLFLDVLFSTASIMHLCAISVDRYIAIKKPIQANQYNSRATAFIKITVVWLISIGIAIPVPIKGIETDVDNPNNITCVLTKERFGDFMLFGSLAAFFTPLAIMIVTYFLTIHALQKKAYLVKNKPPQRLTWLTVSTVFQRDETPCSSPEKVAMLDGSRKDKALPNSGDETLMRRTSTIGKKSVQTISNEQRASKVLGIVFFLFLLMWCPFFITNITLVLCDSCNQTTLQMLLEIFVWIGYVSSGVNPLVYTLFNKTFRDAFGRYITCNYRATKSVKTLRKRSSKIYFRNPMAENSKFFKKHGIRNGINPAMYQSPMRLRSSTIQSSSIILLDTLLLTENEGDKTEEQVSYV

COc1cc2c(cc1Br)OCC2CN (stereo not shown) (as salt: hydrochloride) [Compound 9, (6-Bromo-5-methoxy-2,3-dihydrobenzofuran-3-yl)methanamine]
melting point: 232 to 234 °C (dec.)

COc1cc2c(cc1Br)OCCCC2CN (stereo not shown) (as salt: hydrochloride) [Compound 11, (8-Bromo-7-methoxy-2,3,4,5-tetrahydrobenzo[b]oxepin-5-yl)methanamine]
melting point: 224 to 226 °C

COc1cc(CCN)c(OC)cc1Br [Compound 1a, 2C-B]
Ki (5-HT2A [1]): 0.88 nM

COc1cc(CC(C)N)c(OC)cc1Br (stereo not shown) [Compound 1b, DOB]
Ki (5-HT2C [2]): 2.82 nM | Ki (5-HT2A [3]): […]

NCCc1c2c(c(Br)c3c1OCCC3)OCCC2 [Compound 3a, 2C-B-butterfly]
Ki (5-HT2C [2]): 1.52 nM | Ki (5-HT2A [3]): 1.76 nM

CC(N)Cc1c2c(c(Br)c3c1OCCC3)OCCC2 (stereo not shown) [Compound 3b, DOB-butterfly]
Ki (5-HT2C [2]): 1.85 nM | Ki (5-HT2A [3]): 3.87 nM

CC(N)Cc1c2ccoc2c(Br)c2ccoc12 (stereo not shown) [Compound 4, Bromo-DragonFLY]
Ki (5-HT2A-C): 0.02 to 0.19 nM

COc1cc(Br)c(OC)c2c1C(CN)CC2 (stereo not shown) [Compound 7]
Ki (5-HT2A [1]): 47 nM

COc1cc2c(cc1Br)OCCC(N)C2 (stereo not shown) [Compound 8]
Fold lower affinity than the unconstrained reference DOB (5-HT2A [3]; 5-HT2A): 373 fold | Ki (5-HT2A [3]): 422 nM

COc1cc2c(cc1Br)OCC2CN (stereo not shown) [Compound 9, (6-Bromo-5-methoxy-2,3-dihydrobenzofuran-3-yl)methanamine]
Ki (5-HT2B; [6]): 196 ± 28 nM | Ki (5-HT2A [4]): 1040 ± 188 nM | Ki (5-HT2C [5]): 135 ± 31 nM

COc1cc2c(cc1Br)OCCCC2CN (stereo not shown) [Compound 11, (8-Bromo-7-methoxy-2,3,4,5-tetrahydrobenzo[b]oxepin-5-yl)methanamine]
Ki (5-HT2B; Affinity for 5-HT2B, radioligand [3H]-LSD): 1900 nM | Ki (5-HT2B; [6]): 1870 ± 345 nM | Ki (5-HT2A [4]): > 10000 nM | Affinity, Ki 5-HT2A (5-HT2A [4]; Human, radioligand [3H]-ketanserin): inactive | Ki (5-HT2C [5]): > 10000 nM | Affinity, Ki 5-HT2C (5-HT2C [5]; Human, radioligand [3H]-mesulergine): inactive

(6-Methoxychroman-4-yl)methanamine [Compound 10]
Ki (5-HT2B; read-out: Affinity, Ki 5-HT2B, radioligand [3H]-LSD): 70 ± 13 nM | Ki (5-HT2A [4]; read-out: Affinity, Ki 5-HT2A, Human, radioligand [3H]-ketanserin): 847 ± 79 nM | Ki (5-HT2C [5]; read-out: Affinity, Ki 5-HT2C, Human, radioligand [3H]-mesulergine): 124 ± 9 nM
